Laboratory results taken from US8383629B2, “Inhibitors of 11β-hydroxysteroid dehydrogenase type 1” (Vitae Pharmaceuticals, Inc., priority 2008, dated 2013).

Biological target: T1, human 11β-HSD1 (Homo sapiens, UniProt P28845)
T1 construct: expressed in transfected cells; host or cells: CHO cells (microsomes)
Test: Inhibition of microsomal preparation of 11β-HSD1 (SPA, Biological Test Example 1)
Format: biochemical
Conditions: for inhibition at 0.111 µM: 111 nM; for IC50: microsomes from CHO cells overexpressing human 11β-HSD1, read-out: IC50 Range; for inhibition at 0.1 µM: 100 nM
Description: The inhibition of microsomal preparation of 11β-HSD1 by compounds of the invention was measured essentially as previously described (K. Solly, S. S. Mundt, H. J. Zokian, G. J. Ding, A. Hermanowski-Vosatka, B. Strulovici, and W. Zheng, High-Throughput Screening of 11-Beta-Hydroxysteroid Dehydrogenase Type 1 in Scintillation Proximity Assay Format. Assay Drug Dev Technol 3 (2005) 377-384). All reactions were carried out at rt in 96 well clear flexible PET Microbeta plates (PerkinElmer). The assay begins by dispensing 49 μl of substrate solution (50 mM HEPES, pH 7.4, 100 mM KCl, 5 mM NaCl, 2 mM MgCl2, 2 mM NADPH and 160 nM [^3H]cortisone (1 Ci/mmol)) and mixing in 1 μL of the test compounds in DMSO previously diluted in half-log increments (8 points) starting at 0.1 mM. After a 10 minute pre-incubation, 50 μL of enzyme solution containing microsomes isolated from CHO cells overexpressing human 11β-HSD1 (10-20 μg/ml of total protein) was added, and the plates were incubated for 90 minutes at rt. The reaction was stopped by adding 50 μl of the SPA beads suspension containing 10 μM 18β-glycyrrhetinic acid, 5 mg/ml protein A coated YSi SPA beads (GE Healthcare) and 3.3 μg/ml of anti-cortisol antibody (East Coast Biologics) in Superblock buffer (Bio-Rad). The plates were shaken for 120 minutes at rt, and the SPA signal corresponding to [^3H]cortisol was measured on a Microbeta plate reader.

T1 sequence (P28845 whole entry): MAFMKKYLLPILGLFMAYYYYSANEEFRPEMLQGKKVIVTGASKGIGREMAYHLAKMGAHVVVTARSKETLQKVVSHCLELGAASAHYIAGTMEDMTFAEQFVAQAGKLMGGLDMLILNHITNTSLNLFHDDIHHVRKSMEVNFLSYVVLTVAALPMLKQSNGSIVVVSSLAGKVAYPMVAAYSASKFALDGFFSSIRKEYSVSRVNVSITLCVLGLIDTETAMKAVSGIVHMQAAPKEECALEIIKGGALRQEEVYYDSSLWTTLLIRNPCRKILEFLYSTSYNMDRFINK

Row | Compound | inhibition at 0.111 µM | IC50 | inhibition at 0.1 µM
1 | O=C(/C=C/c1ccccc1C(F)(F)F)N1CCC2(CC1)CNCc1ccccc12 [EXAMPLE 21, (E)-1-(2,3-dihydro-1H-spiro[isoquinoline-4,4′-piperidine]-1′-yl)-3-(2-(trifluoromethyl)phenyl)prop-2-en-1-one] | 87.4% | < 0.1 µM | 
2 | CS(=O)(=O)N1Cc2ccccc2C2(CCN(C(=O)/C=C/c3ccccc3C(F)(F)F)CC2)C1 [EXAMPLE 22, (E)-1-(2-(methylsulfonyl)-2,3-dihydro-1H-spiro[isoquinoline-4,4′-piperidine]-1′-yl)-3-(2-(trifluoromethyl)phenyl)prop-2-en-1-one] | 95.3% | < 0.1 µM | 
3 | CC(=O)N1Cc2ccccc2C2(CCN(C(=O)/C=C/c3ccccc3C(F)(F)F)CC2)C1 [EXAMPLE 23, (E)-1-(2-acetyl-2,3-dihydro-1H-spiro[isoquinoline-4,4′-piperidine]-1′-yl)-3-(2-(trifluoromethyl)phenyl)prop-2-en-1-one] | 94.9% | < 0.1 µM | 
4 | CN1C(=O)c2ccccc2C12CCN(C(=O)/C=C/c1ccccc1C(F)(F)F)CC2 [EXAMPLE 24, (E)-2-methyl-1′-(3-(2-(trifluoromethyl)phenyl)acryloyl)spiro[isoindoline-1,4′-piperidin]-3-one] | 82.3% | < 0.1 µM | 
5 | CN1C(=O)c2cccc(Cl)c2C12CCN(C(=O)/C=C/c1ccccc1C(F)(F)F)CC2 [EXAMPLE 25, (E)-7-chloro-2-methyl-1′-(3-(2-(trifluoromethyl)phenyl)acryloyl)spiro[isoindoline-1,4′-piperidin]-3-one] | 95.3% | < 0.1 µM | 95.5%
6 | CN1C(=O)c2cccc(Cl)c2C12CCN(C(=O)/C=C/c1c(Cl)cccc1Cl)CC2 [EXAMPLE 26, (E)-7-chloro-1′-(3-(2,6-dichlorophenyl)acryloyl)-2-methylspiro[isoindoline-1,4′-piperidin]-3-one] | 79% | < 0.1 µM | 
7 | O=C1NC2(CCN(C(=O)/C=C/c3ccccc3C(F)(F)F)CC2)c2c(Cl)cccc21 [EXAMPLE 27, (E)-7-chloro-1′-(3-(2-(trifluoromethyl)phenyl)acryloyl)spiro[isoindoline-1,4′-piperidin]-3-one] | 89.8% | < 0.1 µM | 
8 | O=C1NC2(CCN(C(=O)/C=C/c3ccccc3C(F)(F)F)CC2)c2c(Br)cccc21 [EXAMPLE 28, (E)-7-bromo-1′-(3-(2-(trifluoromethyl)phenyl)acryloyl)spiro[isoindoline-1,4′-piperidin]-3-one] | 92.7% | < 0.1 µM | 
9 | O=C1NC2(CCN(C(=O)/C=C/c3ccccc3C(F)(F)F)CC2)c2c(Cl)cc(Cl)cc21 [EXAMPLE 29, (E)-5,7-dichloro-1′-(3-(2-(trifluoromethyl)phenyl)acryloyl)spiro[isoindoline-1,4′-piperidin]-3-one] | 94.2% | < 0.1 µM | 
10 | COc1ccc2c(c1)CCNC21CCN(C(=O)/C=C/c2ccccc2C(F)(F)F)CC1 [EXAMPLE 30, (E)-1-(6-methoxy-3,4-dihydro-2H-spiro[isoquinoline-1,4′-piperidine]-1′-yl)-3-(2-(trifluoromethyl)phenyl)prop-2-en-1-one] | 94.6% | < 0.1 µM | 90.3%
11 | CN1C(=O)C2(CCN(C(=O)/C=C/c3ccccc3C(F)(F)F)CC2)c2ccccc21 [EXAMPLE 31, (E)-1-methyl-1′-(3-(2-(trifluoromethyl)phenyl)acryloyl)spiro[indoline-3,4′-piperidin]-2-one] |  | < 0.1 µM | 99.9%
12 | COC(=O)c1ccc2c(c1)C1(CCN(C(=O)/C=C/c3ccccc3C(F)(F)F)CC1)C(=O)N2C [EXAMPLE 32, (E)-methyl 1-methyl-2-oxo-1′-(3-(2-(trifluoromethyl)phenyl)acryloyl)spiro[indoline-3,4′-piperidine]-5-carboxylate] | 83.4% | < 0.1 µM | 
13 | CN1C(=O)C2(CCN(C(=O)/C=C/c3ccccc3C(F)(F)F)CC2)c2cc(C(=O)O)ccc21 [EXAMPLE 33, (E)-1-methyl-2-oxo-1′-(3-(2-(trifluoromethyl)phenyl)acryloyl)spiro[indoline-3,4′-piperidine]-5-carboxylic acid] | 31.5% | 0.1 to 1 µM | 
14 | CN(C)C(=O)c1ccc2c(c1)C1(CCN(C(=O)/C=C/c3ccccc3C(F)(F)F)CC1)C(=O)N2C [EXAMPLE 34, (E)-N,N,1-trimethyl-2-oxo-1′-(3-(2-(trifluoromethyl)phenyl)acryloyl)spiro[indoline-3,4′-piperidine]-5-carboxamide] | 38.2% | 0.1 to 1 µM | 
15 | CN1C(=O)C2(CCN(C(=O)/C=C/c3ccccc3C(F)(F)F)CC2)c2cc(C(N)=O)ccc21 [EXAMPLE 35, (E)-1-methyl-2-oxo-1′-(3-(2-(trifluoromethyl)phenyl)acryloyl)spiro[indoline-3,4′-piperidine]-5-carboxamide] | 41.4% | 0.1 to 1 µM | 
16 | CN1C(=O)C2(CCN(C(=O)/C=C/c3ccccc3C(F)(F)F)CC2)c2cc(C(=O)NCCO)ccc21 [EXAMPLE 36, (E)-N-(2-hydroxyethyl)-1-methyl-2-oxo-1′-(3-(2-(trifluoromethyl)phenyl)acryloyl)spiro[indoline-3,4′-piperidine]-5-carboxamide] | 0.6% | 0.1 to 1 µM | 
17 | CN1CCN(C(=O)c2ccc3c(c2)C2(CCN(C(=O)/C=C/c4ccccc4C(F)(F)F)CC2)C(=O)N3C)CC1 [EXAMPLE 37, (E)-1-methyl-5-(4-methylpiperazine-1-carbonyl)-1′-(3-(2-(trifluoromethyl)phenyl)acryloyl)spiro[indoline-3,4′-piperidin]-2-one] | 7.1% | 0.1 to 1 µM | 
18 | CNC(=O)c1ccc2c(c1)C1(CCN(C(=O)/C=C/c3ccccc3C(F)(F)F)CC1)C(=O)N2C [EXAMPLE 38, (E)-N,1-dimethyl-2-oxo-1′-(3-(2-(trifluoromethyl)phenyl)acryloyl)spiro[indoline-3,4′-piperidine]-5-carboxamide] | 21.3% | 0.1 to 1 µM | 
19 | CN1C(=O)C2(CCN(C(=O)/C=C/c3ccccc3C(F)(F)F)CC2)c2cc(C#N)ccc21 [EXAMPLE 39, (E)-1-methyl-2-oxo-1′-(3-(2-(trifluoromethyl)phenyl)acryloyl)spiro[indoline-3,4′-piperidine]-5-carbonitrile] | 64.8% | < 0.1 µM | 
20 | CCN1C(=O)C2(CCN(C(=O)/C=C/c3ccccc3C(F)(F)F)CC2)c2cc(C(=O)OC)ccc21 [EXAMPLE 40, (E)-methyl 1-ethyl-2-oxo-1′-(3-(2-(trifluoromethyl)phenyl)acryloyl)spiro[indoline-3,4′-piperidine]-5-carboxylate] | 71.2% | < 0.1 µM | 
21 | O=C(/C=C/c1ccccc1C(F)(F)F)N1CCC2(CC1)C(=O)Nc1ccc(F)cc12 [EXAMPLE 41, (E)-5-fluoro-1′-(3-(2-(trifluoromethyl)phenyl)acryloyl)spiro[indoline-3,4′-piperidin]-2-one] |  | < 0.1 µM | 91.2%
22 | O=C1Cc2ccccc2C2(CCN(C(=O)/C=C/c3ccccc3C(F)(F)F)CC2)N1 [EXAMPLE 42, (E)-1′-(3-(2-(trifluoromethyl)phenyl)acryloyl)-2H-spiro[isoquinoline-1,4′-piperidin]-3(4H)-one] | 79.3% | < 0.1 µM | 
23 | CC1(C)NC(=O)C2(CCN(C(=O)/C=C/c3ccccc3C(F)(F)F)CC2)c2ccccc21 [EXAMPLE 43, (E)-1,1-dimethyl-1′-(3-(2-(trifluoromethyl)phenyl)acryloyl)-1H-spiro[isoquinoline-4,4′-piperidin]-3(2H)-one] |  | < 0.1 µM | 90.6%
24 | COc1ccc2c(c1)CCNC21CCN(C(=O)Cc2ccccc2C(F)(F)F)CC1 [EXAMPLE 44, 1-(6-methoxy-3,4-dihydro-2H-spiro[isoquinoline-1,4′-piperidine]-1′-yl)-2-(2-(trifluoromethyl)phenyl)ethanone] | 69.9% | < 0.1 µM | 
25 | O=C1NC2(CCN(C(=O)Cc3ccccc3C(F)(F)F)CC2)c2c(Cl)cccc21 [EXAMPLE 45, 7-chloro-1′-(2-(2-(trifluoromethyl)phenyl)acetyl)spiro[isoindoline-1,4′-piperidin]-3-one] | 43.2% | 0.1 to 1 µM | 
26 | O=C(Cc1ccccc1C(F)(F)F)N1CCC2(CC1)C(=O)Nc1ccccc12 [EXAMPLE 47, 1′-(2-(2-(trifluoromethyl)phenyl)acetyl)spiro[indoline-3,4′-piperidin]-2-one] | 83.3% | < 0.1 µM | 
27 | CN1C(=O)C2(CCN(C(=O)Cc3ccccc3C(F)(F)F)CC2)c2ccccc21 [EXAMPLE 48, 1-methyl-1′-(2-(2-(trifluoromethyl)phenyl)acetyl)spiro[indoline-3,4′-piperidin]-2-one] | 86.3% | < 0.1 µM | 80.6%
28 | O=C1NC2(CCN(C(=O)Cc3ccccc3C(F)(F)F)CC2)c2c(Br)cccc21 [EXAMPLE 49, 7-bromo-1′-(2-(2-(trifluoromethyl)phenyl)acetyl)spiro[isoindoline-1,4′-piperidin]-3-one] | 49.2% | 0.1 to 1 µM | 
